Test results from ChEMBL document CHEMBL3351222, “Novel multi-targeting anthra[2,3-b]thiophene-5,10-diones with guanidine-containing side chains: interaction with telomeric G-quadruplex, inhibition of telomerase and topoisomerase I and cytotoxic properties” (Eur J Med Chem, 2014).
Active and inactive are the calls of the source. The rule behind the calls is not given here.

Experiments:
L1210 [1] = assay: Cytotoxicity against mouse L1210 cells after 48 hrs by trypan blue assay; assay type: functional, cell-based; conditions: L1210, 48 h
Homo sapiens [2] = organism: Homo sapiens; assay: Binding affinity to human telomeric G-quadruplex TelQ22-DA DNA assessed as change in melting temperature by FRET assay
[3] = target: T1, DNA topoisomerase 1 (Homo sapiens) (UniProt P11387); assay: Inhibition of topoisomerase 1 (unknown origin)-mediated relaxation of supercoiled pBR322 at 1 uM after 30 mins by agarose gel electrophoresis
T1 sequence (whole entry): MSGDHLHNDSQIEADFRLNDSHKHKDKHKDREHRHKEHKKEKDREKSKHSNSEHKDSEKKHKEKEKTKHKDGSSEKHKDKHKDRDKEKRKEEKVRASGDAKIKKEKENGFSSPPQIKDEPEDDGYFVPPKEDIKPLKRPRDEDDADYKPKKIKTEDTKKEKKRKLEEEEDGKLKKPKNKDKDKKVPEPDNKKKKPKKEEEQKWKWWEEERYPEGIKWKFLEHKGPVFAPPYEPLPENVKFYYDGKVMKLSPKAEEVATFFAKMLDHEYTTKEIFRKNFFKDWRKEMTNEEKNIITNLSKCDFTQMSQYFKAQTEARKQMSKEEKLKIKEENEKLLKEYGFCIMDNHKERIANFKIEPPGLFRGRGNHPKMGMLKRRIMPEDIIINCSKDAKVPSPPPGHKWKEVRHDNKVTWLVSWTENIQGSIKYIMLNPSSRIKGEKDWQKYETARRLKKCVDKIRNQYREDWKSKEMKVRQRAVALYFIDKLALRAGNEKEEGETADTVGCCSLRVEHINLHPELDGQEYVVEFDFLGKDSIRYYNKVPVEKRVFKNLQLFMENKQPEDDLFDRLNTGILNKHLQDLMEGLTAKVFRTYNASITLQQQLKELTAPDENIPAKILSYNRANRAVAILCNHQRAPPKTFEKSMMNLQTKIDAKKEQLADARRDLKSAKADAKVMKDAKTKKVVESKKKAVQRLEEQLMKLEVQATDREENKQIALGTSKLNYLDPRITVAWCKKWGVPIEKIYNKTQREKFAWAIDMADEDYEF

CCRF-CEM = assay: Cytotoxicity against human CEM cells after 48 hrs by trypan blue assay; assay type: functional, cell-based
Homo sapiens [4] = organism: Homo sapiens; assay: Binding affinity to human telomeric G-quadruplex TelQ22-DA DNA assessed as interaction with compound at 25 degC by isothermal titration calorimetry
Homo sapiens [5] = organism: Homo sapiens; assay: Binding affinity to human telomeric G-quadruplex TelQ24 (5'-d(TTAGGG)4)-3') DNA at 25 degC by fluorescent intercalator displacement assay
[6] = target: T2, Telomerase reverse transcriptase (Homo sapiens, UniProt O14746); assay: Inhibition of human telomerase transfected in human HEK293T cells assessed as DNA extension using 5'-d(AATCCGTCGAGCAGAGTT)-3' substrate; assay type: cell-based; conditions: hek-293t
T2 sequence (O14746 whole entry): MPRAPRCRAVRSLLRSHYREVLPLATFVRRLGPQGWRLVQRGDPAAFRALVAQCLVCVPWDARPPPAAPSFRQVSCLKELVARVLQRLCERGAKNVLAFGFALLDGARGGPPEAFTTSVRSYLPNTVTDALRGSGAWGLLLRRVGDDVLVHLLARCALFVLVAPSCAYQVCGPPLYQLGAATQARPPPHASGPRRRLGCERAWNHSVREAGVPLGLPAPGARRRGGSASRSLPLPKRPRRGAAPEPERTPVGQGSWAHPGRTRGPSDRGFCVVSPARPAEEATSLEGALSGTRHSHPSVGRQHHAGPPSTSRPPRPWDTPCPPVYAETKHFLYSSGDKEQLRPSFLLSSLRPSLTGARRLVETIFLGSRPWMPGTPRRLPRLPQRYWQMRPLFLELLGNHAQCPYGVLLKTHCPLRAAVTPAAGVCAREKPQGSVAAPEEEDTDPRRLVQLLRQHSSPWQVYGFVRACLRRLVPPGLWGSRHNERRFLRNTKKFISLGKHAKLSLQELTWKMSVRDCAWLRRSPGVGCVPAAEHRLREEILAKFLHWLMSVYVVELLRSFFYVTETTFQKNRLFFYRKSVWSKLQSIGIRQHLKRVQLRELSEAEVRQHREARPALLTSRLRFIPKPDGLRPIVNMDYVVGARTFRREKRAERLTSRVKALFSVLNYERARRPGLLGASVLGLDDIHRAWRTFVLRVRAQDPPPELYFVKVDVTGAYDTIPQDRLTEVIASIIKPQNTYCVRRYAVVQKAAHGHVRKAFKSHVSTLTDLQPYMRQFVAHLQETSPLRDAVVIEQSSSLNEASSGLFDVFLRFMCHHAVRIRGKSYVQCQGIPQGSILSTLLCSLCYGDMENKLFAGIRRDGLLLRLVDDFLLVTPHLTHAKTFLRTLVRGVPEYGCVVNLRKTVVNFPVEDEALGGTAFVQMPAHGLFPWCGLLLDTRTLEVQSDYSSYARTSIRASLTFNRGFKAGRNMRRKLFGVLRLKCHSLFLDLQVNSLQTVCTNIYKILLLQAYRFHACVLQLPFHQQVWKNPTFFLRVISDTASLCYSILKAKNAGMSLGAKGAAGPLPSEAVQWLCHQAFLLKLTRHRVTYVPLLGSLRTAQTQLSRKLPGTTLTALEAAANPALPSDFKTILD

[7] = target: T2, Telomerase reverse transcriptase; assay: Inhibition of human telomerase transfected in human HEK293T cells assessed as DNA extension using 5'-d(AATCCGTCGAGCAGAGTT)-3' substrate by Real-time quantitative telomeric repeat amplification protocol; assay type: cell-based; conditions: hek-293t
Homo sapiens [8] = organism: Homo sapiens; assay: Binding affinity to human telomeric G-quadruplex TelQ22-DA DNA at 65 degC by FRET melting assay
L1210 [9] = assay: Drug uptake in mouse L1210 cells at 1 uM after 15 mins; assay type: ADME, cell-based; conditions: l1210, 0.25 h
L1210 [10] = assay: Drug uptake in mouse L1210 cells at 1 uM after 3 hrs; assay type: ADME, cell-based; conditions: l1210, 3 h

| ΔTm (Homo sapiens [2]) | inhibition [3] | Kb (Homo sapiens [4]) | Kb (Homo sapiens [5]) | IC50 [6] | IC50 [7] | Kb (Homo sapiens [8]) | Drug uptake (L1210 [9]) | Drug uptake (L1210 [10]) | SMILES | IC50 (L1210 [1]) | IC50 (CCRF-CEM) |
| --- | --- | --- | --- | --- | --- | --- | --- | --- | --- | --- | --- |
| 1 °C | Active | 0.5 ×10⁶ /M | 2.1 ×10⁶ /M | 3 µM | 0.5 µM | 0.1 ×10⁶ /M | – | – | N=C(N)NCCNc1c2c(c(N)c3ccsc13)C(=O)c1ccccc1C2=O | 22 µM | 21 µM |
| 5.4 °C | Active | 4.9 ×10⁶ /M | 5.5 ×10⁶ /M | 0.6 µM | 0.3 µM | 1.6 ×10⁶ /M | – | – | CNCCNc1c2c(c(NCCNC(=N)N)c3ccsc13)C(=O)c1ccccc1C2=O | 23 µM | 6 µM |
| 7 °C | Active | 1.1 ×10⁶ /M | 8 ×10⁶ /M | 0.47 µM | 0.3 µM | 2.4 ×10⁶ /M | – | – | CC(=N)NCCNc1c2c(c(NCCNC(C)=N)c3sccc13)C(=O)c1ccccc1C2=O | 36 µM | 39 µM |
| 1 °C | – | 0.6 ×10⁶ /M | 1.6 ×10⁶ /M | 2 µM | 0.9 µM | 0.2 ×10⁶ /M | – | – | N=C(N)NCCNc1c2c(c(N)c3sccc13)C(=O)c1ccccc1C2=O | 19 µM | 16 µM |
| 12 °C | Active | – | 8 ×10⁶ /M | 0.7 µM | 0.08 µM | 7 ×10⁶ /M | Active | Active | Cl.N=C(N)NCCNc1c2c(c(NCCNC(=N)N)c3sccc13)C(=O)c1ccccc1C2=O | 20 µM | 11 µM |
| 4.3 °C | Active | 1.6 ×10⁶ /M | 11 ×10⁶ /M | 0.7 µM | 0.5 µM | 1.1 ×10⁶ /M | Active | Active | CNCCNc1c2c(c(NCCNC)c3sccc13)C(=O)c1ccccc1C2=O.Cl | 0.9 µM | – |
| 10 °C | Active | 3.7 ×10⁶ /M | 9 ×10⁶ /M | 0.7 µM | 0.07 µM | 5 ×10⁶ /M | Active | Active | Cl.N=C(N)NCCNc1c2c(c(NCCCN)c3sccc13)C(=O)c1ccccc1C2=O | 10 µM | 10 µM |
| 0.1 °C | – | – | 1.3 ×10⁶ /M | 10 µM | 33 µM | 0.01 ×10⁶ /M | – | – | Nc1c2c(c(N)c3sccc13)C(=O)c1ccccc1C2=O | > 250 µM | > 250 µM |
| 5 °C | Active | 11 ×10⁶ /M | 12 ×10⁶ /M | 0.8 µM | 0.1 µM | 1.5 ×10⁶ /M | – | – | N=C(N)NCCNc1c2c(c(NCCN)c3sccc13)C(=O)c1ccccc1C2=O | 16 µM | 7 µM |
| 5.1 °C | – | 2.5 ×10⁶ /M | 4 ×10⁶ /M | 1.1 µM | 0.05 µM | 1.5 ×10⁶ /M | – | – | CNCCNc1c2c(c(NCCNC(=N)N)c3sccc13)C(=O)c1ccccc1C2=O | 16 µM | 11 µM |
